Assay results: patent US20120252801A1, “ANTIFUNGAL COMPOUNDS” (Katholieke Universiteit Leuven, K.U.Leuven R&D, priority 2009, published 2012)
Converted amounts (≈) assume the structure as drawn.

Key:
Aspergillus flavus = experiment: Minimal inhibitory concentration (MIC) against A. flavus; format: cell-based; details: 24 h at 25° C. in ½ PDB, minimal concentration that inhibits growth
Procedure: (§1) To determine the MIC and MFC of a compound against Aspergillus flavus, Fusarium oxysporum or F. culmorum, a 2-fold dilution series of the compounds of the invention was incubated with the corresponding spore suspension in ½ PDB (potato dextrose broth, Difco) (2×10^4 spores/ml). […] MFC was determined as the minimal concentration of a compound resulting in less than 1% survival of the fungal culture relative to the DMSO control.

Fusarium oxysporum = experiment: Minimal inhibitory concentration (MIC) against F. oxysporum; format: cell-based; details: 24 h at 25° C. in ½ PDB, minimal concentration that inhibits growth
Procedure: as §1

C. albicans SC5314 = experiment: Minimal fungicidal concentration (MFC) against C. albicans; format: cell-based; details: Candida albicans, 24 h at 37° C. in PBS, less than 1% survival relative to DMSO control
Procedure: (§2) Two-fold dilution series of the compounds were prepared in 50% DMSO. 5 μl of these series were added to 95 μl PBS buffer inoculated with 1/500 cells of an overnight culture of either C. albicans, C. glabrata or C. krusei (final DMSO conc 2%). 2% DMSO served as negative control. After 24 h incubation at 37° C. of these cultures with the antifungal compounds in PBS, the cell cultures were plated on YPD agar and colony forming units (CFUs) were determined after incubation of the plates for 2 days. MFC was determined as the minimal concentration of a compound resulting in less than 1% survival of the yeast culture relative to the DMSO control.

A. fumigatus = experiment: Minimal inhibitory concentration (MIC) against A. fumigatus; format: cell-based; details: Aspergillus fumigatus; minimal concentration that inhibits growth
C. glabrata = experiment: Minimal fungicidal concentration (MFC) against C. glabrata; format: cell-based, Candida glabrata; details: Nakaseomyces glabratus; 24 h at 37° C. in PBS; less than 1% survival relative to DMSO control
Procedure: as §2

SMILES	MIC (Aspergillus flavus)	MIC (Fusarium oxysporum)	MFC (C. albicans SC5314)	MIC (A. fumigatus)	MFC (C. glabrata)
CCN1CC(C)(C)OC(=O)C1CC(=O)NCC(F)(F)F (stereo not drawn) [CPD-39, 2-(4-ethyl-6,6-dimethyl-2-oxomorpholin-3-yl)-N-(2,2,2-trifluoroethyl)acetamide]	> 50 µg/mL	> 50 µg/mL	50 µg/mL (≈ 169 µM)	25 µg/mL (≈ 84.4 µM)	> 50 µg/mL
CCN1CC(C)(C)OC(=O)C1CC(=O)Nc1ccc2scnc2c1 (stereo not drawn) [CPD-10, N-(benzo[d]thiazol-5-yl)-2-(4-ethyl-6,6-dimethyl-2-oxomorpholin-3-yl)acetamide]	> 50 µg/mL	> 50 µg/mL	> 50 µg/mL	12.5 µg/mL (≈ 36 µM)	> 50 µg/mL
CCN1CC(C)(C)OC(=O)C1CC(=O)NCc1ccccc1OC (stereo not drawn) [CPD-79, 2-(4-ethyl-6,6-dimethyl-2-oxomorpholin-3-yl)-N-(2-methoxybenzyl)acetamide]	> 25 µg/mL	> 25 µg/mL	> 25 µg/mL	12.5 µg/mL (≈ 37.4 µM)	25 µg/mL (≈ 74.8 µM)
CCN1CC(C)(C)OC(=O)C1CC(=O)NCC1CCCCC1 (stereo not drawn) [CPD-47, N-(cyclohexylmethyl)-2-(4-ethyl-6,6-dimethyl-2-oxomorpholin-3-yl)acetamide]	50 µg/mL (≈ 161 µM)	> 50 µg/mL	25 µg/mL (≈ 80.5 µM)	25 µg/mL (≈ 80.5 µM)	6.25 µg/mL (≈ 20.1 µM)
CCN1C[C@H](c2ccccc2)OC(=O)C1CC(=O)Nc1ccc(C(C)C)cc1 (stereo partly drawn) [CPD-02, 2-((6S)-4-ethyl-2-oxo-6-phenylmorpholin-3-yl)-N-(4-isopropylphenyl)acetamide]	6.25 µg/mL (≈ 16.4 µM)	–	12.5 µg/mL (≈ 32.9 µM)	0.8 µg/mL (≈ 2.1 µM)	12.5 µg/mL (≈ 32.9 µM)
CCN1CC(C)(C)OC(=O)C1CC(=O)NCc1ccc(-c2ccccc2)cc1 (stereo not drawn) [CPD-73, N-(biphenyl-4-ylmethyl)-2-(4-ethyl-6,6-dimethyl-2-oxomorpholin-3-yl)acetamide]	–	–	25 µg/mL (≈ 65.7 µM)	–	–
CCN1CC(C)(C)OC(=O)C1CC(=O)NCc1ccc(C(F)(F)F)cc1 (stereo not drawn) [CPD-71, 2-(4-ethyl-6,6-dimethyl-2-oxomorpholin-3-yl)-N-(4-(trifluoromethyl)benzyl)acetamide]	–	–	25 µg/mL (≈ 67.1 µM)	–	–
CCN1CC(C)(C)OC(=O)C1CC(=O)NCCc1ccccc1 (stereo not drawn) [CPD-18, 2-(4-ethyl-6,6-dimethyl-2-oxomorpholin-3-yl)-N-phenethylacetamide]	25 µg/mL (≈ 78.5 µM)	> 50 µg/mL	25 µg/mL (≈ 78.5 µM)	6.25 µg/mL (≈ 19.6 µM)	50 µg/mL (≈ 157 µM)
CCN1CC(C)(C)OC(=O)C1CC(=O)NCc1cccc(OC)c1 (stereo not drawn) [CPD-80, 2-(4-ethyl-6,6-dimethyl-2-oxomorpholin-3-yl)-N-(3-methoxybenzyl)acetamide]	> 25 µg/mL	> 25 µg/mL	25 µg/mL (≈ 74.8 µM)	6.25 µg/mL (≈ 18.7 µM)	12.5 µg/mL (≈ 37.4 µM)
CCN1CC(C)(C)OC(=O)C1CC(=O)NCc1cccc(C(F)(F)F)c1 (stereo not drawn) [CPD-78, 2-(4-ethyl-6,6-dimethyl-2-oxomorpholin-3-yl)-N-(3-(trifluoromethyl)benzyl)acetamide]	> 25 µg/mL	> 25 µg/mL	25 µg/mL (≈ 67.1 µM)	6.25 µg/mL (≈ 16.8 µM)	12.5 µg/mL (≈ 33.6 µM)
CCN1C[C@@H](C)OC(=O)C1CC(=O)Nc1ccc(C(C)C)cc1 (stereo partly drawn) [CPD-05, 2-((6R)-4-ethyl-6-methyl-2-oxomorpholin-3-yl)-N-(4-isopropylphenyl)acetamide]	6.25 µg/mL (≈ 19.6 µM)	–	12.5 µg/mL (≈ 39.3 µM)	0.8 µg/mL (≈ 2.51 µM)	6.25 µg/mL (≈ 19.6 µM)
CCN1CC(C)(C)OC(=O)C1CC(=O)NCc1ccccc1C(F)(F)F (stereo not drawn) [CPD-77, 2-(4-ethyl-6,6-dimethyl-2-oxomorpholin-3-yl)-N-(2-(trifluoromethyl)benzyl)acetamide]	25 µg/mL (≈ 67.1 µM)	25 µg/mL (≈ 67.1 µM)	25 µg/mL (≈ 67.1 µM)	3.12 µg/mL (≈ 8.39 µM)	12.5 µg/mL (≈ 33.6 µM)
CCN1CC(C)(C)OC(=O)C1CC(=O)NCc1ccccc1Cl (stereo not drawn) [CPD-57, N-(2-chlorobenzyl)-2-(4-ethyl-6,6-dimethyl-2-oxomorpholin-3-yl)acetamide]	–	–	25 µg/mL (≈ 73.8 µM)	–	–
CCN1C[C@@H](c2ccccc2)OC(=O)C1CC(=O)Nc1ccc(C(C)C)cc1 (stereo partly drawn) [CPD-04, 2-((6R)-4-ethyl-2-oxo-6-phenylmorpholin-3-yl)-N-(4-isopropylphenyl)acetamide]	12.5 µg/mL (≈ 32.9 µM)	–	12.5 µg/mL (≈ 32.9 µM)	0.8 µg/mL (≈ 2.1 µM)	6.25 µg/mL (≈ 16.4 µM)
CCN1CC(C)(C)OC(=O)C1CC(=O)NCc1ccc(OC)cc1 (stereo not drawn) [CPD-72, 2-(4-ethyl-6,6-dimethyl-2-oxomorpholin-3-yl)-N-(4-methoxybenzyl)acetamide]	–	–	25 µg/mL (≈ 74.8 µM)	–	–
CCN1CC(C)(C)OC(=O)C1CC(=O)NCc1ccccc1 (stereo not drawn) [CPD-12, N-benzyl-2-(4-ethyl-6,6-dimethyl-2-oxomorpholin-3-yl)acetamide]	50 µg/mL (≈ 164 µM)	> 50 µg/mL	12.5 µg/mL (≈ 41.1 µM)	12.5 µg/mL (≈ 41.1 µM)	25 µg/mL (≈ 82.1 µM)
CCN1C[C@H](C)OC(=O)C1CC(=O)Nc1ccc(C(C)C)cc1 (stereo partly drawn) [CPD-03, 2-((6S)-4-ethyl-6-methyl-2-oxomorpholin-3-yl)-N-(4-isopropylphenyl)acetamide]	6.25 µg/mL (≈ 19.6 µM)	–	12.5 µg/mL (≈ 39.3 µM)	0.8 µg/mL (≈ 2.51 µM)	6.25 µg/mL (≈ 19.6 µM)
CCN1CC(C)(C)OC(=O)C1CC(=O)NCCC(C)(C)C (stereo not drawn) [CPD-38, N-(3,3-dimethylbutyl)-2-(4-ethyl-6,6-dimethyl-2-oxomorpholin-3-yl)acetamide]	50 µg/mL (≈ 168 µM)	50 µg/mL (≈ 168 µM)	25 µg/mL (≈ 83.8 µM)	50 µg/mL (≈ 168 µM)	12.5 µg/mL (≈ 41.9 µM)
CC(C)c1ccc(NC(=O)CC2C(=O)OC(C)(C)CN2S(C)(=O)=O)cc1 (stereo not drawn) [CPD-75, 2-(6,6-dimethyl-4-(methylsulfonyl)-2-oxomorpholin-3-yl)-N-(4-isopropylphenyl)acetamide]	> 25 µg/mL	> 25 µg/mL	> 25 µg/mL	12.5 µg/mL (≈ 32.7 µM)	> 25 µg/mL
CCN1CC(C)(C)OC(=O)C1CC(=O)NCc1ccccc1C (stereo not drawn) [CPD-69, 2-(4-ethyl-6,6-dimethyl-2-oxomorpholin-3-yl)-N-(2-methylbenzyl)acetamide]	–	–	25 µg/mL (≈ 78.5 µM)	–	–
CCN1CC(C)(C)OC(=O)C1CC(=O)NCc1ccc(C)cc1 (stereo not drawn) [CPD-76, 2-(4-ethyl-6,6-dimethyl-2-oxomorpholin-3-yl)-N-(4-methylbenzyl)acetamide]	25 µg/mL (≈ 78.5 µM)	> 25 µg/mL	25 µg/mL (≈ 78.5 µM)	3.12 µg/mL (≈ 9.81 µM)	6.25 µg/mL (≈ 19.6 µM)
CCN1CC(c2ccccc2)OC(=O)C1CC(=O)Nc1ccc(C(C)C)cc1 (stereo not drawn) [CPD-01, 2-(4-ethyl-2-oxo-6-phenylmorpholin-3-yl)-N-(4-isopropylphenyl)acetamide]	12.5 µg/mL (≈ 32.9 µM)	–	12.5 µg/mL (≈ 32.9 µM)	0.8 µg/mL (≈ 2.1 µM)	12.5 µg/mL (≈ 32.9 µM)
CCN1CC(C)(C)OC(=O)C1CC(=O)NCc1ccco1 (stereo not drawn) [CPD-23, 2-(4-ethyl-6,6-dimethyl-2-oxomorpholin-3-yl)-N-(furan-2-ylmethyl)acetamide]	50 µg/mL (≈ 170 µM)	50 µg/mL (≈ 170 µM)	50 µg/mL (≈ 170 µM)	25 µg/mL (≈ 84.9 µM)	> 50 µg/mL
CCN1CC(C)(C)OC(=O)C1CC(=O)NCc1ccccc1-c1ccccc1 (stereo not drawn) [CPD-81, N-(biphenyl-2-ylmethyl)-2-(4-ethyl-6,6-dimethyl-2-oxomorpholin-3-yl)acetamide]	25 µg/mL (≈ 65.7 µM)	25 µg/mL (≈ 65.7 µM)	12.5 µg/mL (≈ 32.9 µM)	3.12 µg/mL (≈ 8.21 µM)	12.5 µg/mL (≈ 32.9 µM)
CCN1CC(C)(C)OC(=O)C1CC(=O)NCc1cccc(C)c1 (stereo not drawn) [CPD-70, 2-(4-ethyl-6,6-dimethyl-2-oxomorpholin-3-yl)-N-(3-methylbenzyl)acetamide]	–	–	25 µg/mL (≈ 78.5 µM)	–	–
